The values below are quoted from earlier work in article PMC10817174, “Integrated drug response prediction models pinpoint repurposed drugs with effectiveness against rhabdomyosarcoma” (PLOS ONE, 2024).

For one series, the system named is GDSC-SJCRH30 cell line. The settings on record: Table S2, published drug response ref Iorio et al. (2016); cited from earlier work.
The subject of a further series is GDSC-RD cell line. The settings on record: Table S2, published drug response ref Iorio et al. (2016); cited from earlier work.

`CCC/C=C/C=C/C(=O)O[C@H]1/C(=C/C(=O)OC)C[C@H]2C[C@H]([C@@H](C)O)OC(=O)C[C@H](O)C[C@@H]3C[C@H](OC(C)=O)C(C)(C)[C@](O)(C[C@@H]4C/C(=C/C(=O)OC)C[C@H](/C=C/C(C)(C)[C@]1(O)O2)O4)O3` [Bryostatin-1]: the Iorio_SJCRH30 result in the series with GDSC-SJCRH30 cell line is given as “R”. Further, the Iorio_RD result with GDSC-RD cell line is “R”.
In the case of `CC[C@H](Nc1ncnc2[nH]cnc12)c1nc2cccc(F)c2c(=O)n1-c1ccccc1` [CAL-101], the Iorio_SJCRH30 result in the series on GDSC-SJCRH30 cell line is “R”. Further, the Iorio_RD result with GDSC-RD cell line is reported as “R”.
Regarding `CC(C)(C)OC(=O)Nc1ccc(-c2cc(C(=O)NCCCCCCC(=O)NO)no2)cc1` [CAY10603], the Iorio_SJCRH30 result in the series with GDSC-SJCRH30 cell line is recorded as “R”. In addition, the Iorio_RD entry in the series on GDSC-RD cell line is recorded as “R”.
Consider `CCc1cc(-c2n[nH]c(C)c2-c2ccc3c(c2)OCCO3)c(O)cc1O` [CCT018159], for which, in the series on GDSC-SJCRH30 cell line, the Iorio_SJCRH30 entry was “R”. Further, the Iorio_RD result in the series on GDSC-RD cell line is “R”.
Take `COc1cc2ncnc(-n3nc(-c4ccccn4)nc3N)c2cc1OC` [CP466722]: the Iorio_SJCRH30 entry in the series on GDSC-SJCRH30 cell line is recorded as “R”. Moreover, the Iorio_RD entry in the series on GDSC-RD cell line was “R”.
Consider `COCC(=O)NC/C=C/c1ccc2ncnc(Nc3ccc(Oc4ccc(C)nc4)c(C)c3)c2c1` [CP724714], for which, in the series with GDSC-SJCRH30 cell line, the Iorio_SJCRH30 entry is “R”. Moreover, in the series on GDSC-RD cell line, the Iorio_RD result is “R”.
Turning to `C#Cc1cccc(Nc2ncnc3cc(OC)c(OCCCCCCC(=O)NO)cc23)c1` [CUDC-101], the Iorio_SJCRH30 result in the series on GDSC-SJCRH30 cell line was “R”. Moreover, the Iorio_RD result with GDSC-RD cell line is “R”.
For the molecule `Cc1cnc(CNC(=O)c2c(=O)c3ccc(N4CCCN(C)CC4)nc3n3c2sc2ccccc23)cn1` [CX-5461], in the series on GDSC-SJCRH30 cell line, the Iorio_SJCRH30 result is “R”. For the same molecule, the Iorio_RD result in the series with GDSC-RD cell line is given as “S”.
Turning to `COC(=O)CNC(=O)C(=O)OC` [DMOG], in the series on GDSC-SJCRH30 cell line, the Iorio_SJCRH30 entry is on record as “R”. Moreover, in the series with GDSC-RD cell line, the Iorio_RD entry was “R”.
Consider `CC(C)(C)c1nc(-c2cccc(NS(=O)(=O)c3c(F)cccc3F)c2F)c(-c2ccnc(N)n2)s1` [Dabrafenib], for which the Iorio_SJCRH30 entry in the series with GDSC-SJCRH30 cell line was “R”. In addition, in the series on GDSC-RD cell line, the Iorio_RD entry is on record as “R”.
As for `COc1cccc2c1C(=O)c1c(O)c3c(c(O)c1C2=O)C[C@@](O)(C(=O)CO)C[C@@H]3O[C@H]1C[C@H](N)[C@H](O)[C@H](C)O1` [Doxorubicin], the Iorio_SJCRH30 entry in the series on GDSC-SJCRH30 cell line is given as “R”. Further, the Iorio_RD result in the series with GDSC-RD cell line is “R”.
For the molecule `O=c1cc(CN2CCOCC2)occ1OCCCCCSc1ccnc2cc(C(F)(F)F)ccc12` [EHT-1864], the Iorio_SJCRH30 entry in the series with GDSC-SJCRH30 cell line is recorded as “R”. In the series on GDSC-RD cell line, the Iorio_RD result was “R”.
Turning to `CCOc1cc2ncc(C#N)c(Nc3ccc(F)c(Cl)c3)c2cc1NC(=O)/C=C/CN(C)C` [EKB-569], the Iorio_SJCRH30 entry with GDSC-SJCRH30 cell line is reported as “R”. The Iorio_RD entry in the series on GDSC-RD cell line was “R”.
Take `CCCCCCCCCCCC1=C(O)C(=O)C=C(O)C1=O` [Embelin]: the Iorio_SJCRH30 entry in the series on GDSC-SJCRH30 cell line is given as “R”. Moreover, the Iorio_RD result in the series on GDSC-RD cell line is “R”.
In the case of `C/C(=C\c1csc(C)n1)[C@@H]1C[C@@H]2O[C@]2(C)CCC[C@H](C)[C@H](O)[C@@H](C)C(=O)C(C)(C)[C@@H](O)CC(=O)O1` [Epothilone-B], in the series with GDSC-SJCRH30 cell line, the Iorio_SJCRH30 result was “R”. For the same molecule, the Iorio_RD entry in the series on GDSC-RD cell line was “R”.
On to `COc1cc([C@@H]2c3cc4c(cc3[C@@H](O[C@@H]3O[C@@H]5CO[C@@H](C)O[C@H]5[C@H](O)[C@H]3O)[C@H]3COC(=O)[C@H]23)OCO4)cc(OC)c1O` [Etoposide], for which the Iorio_SJCRH30 result in the series with GDSC-SJCRH30 cell line is “R”. Besides, the Iorio_RD result with GDSC-RD cell line is given as “R”.
Consider `Cc1cc([N+](=O)[O-])ccc1NS(=O)(=O)c1cc(Cl)ccc1Cl` [FH535], for which the Iorio_SJCRH30 result in the series on GDSC-SJCRH30 cell line is listed as “R”. In addition, the Iorio_RD entry in the series on GDSC-RD cell line is “R”.
Turning to `O=C(/C=C/c1cccnc1)NCCCCC1CCN(C(=O)c2ccccc2)CC1` [FK866], the Iorio_SJCRH30 entry with GDSC-SJCRH30 cell line is “R”. Further, the Iorio_RD entry with GDSC-RD cell line is recorded as “R”.
`Cc1ccc(-c2c(C(=O)CF)n(CCCO)c3ncnc(N)c23)cc1` [FMK]: in the series with GDSC-SJCRH30 cell line, the Iorio_SJCRH30 entry was “R”. Besides, in the series with GDSC-RD cell line, the Iorio_RD result is recorded as “R”.
On to `Nc1[nH]nc2nnc(-c3c(-c4ccccc4)nn4ccccc34)cc12` [FR-180204], for which the Iorio_SJCRH30 result in the series with GDSC-SJCRH30 cell line is “R”. Moreover, the Iorio_RD entry with GDSC-RD cell line is on record as “R”.
On to `COC(=O)[C@H](CCSC)NC(=O)c1ccc(NC[C@@H](N)CS)cc1-c1ccccc1` [FTI-277], for which the Iorio_SJCRH30 result in the series on GDSC-SJCRH30 cell line is recorded as “R”. Also, the Iorio_RD entry with GDSC-RD cell line is reported as “R”.
